How the values were obtained:
[1] = previously established; cited from earlier work
[2] = system: mice with OVA-induced chronic asthma; test: Inflammatory cell counts in BAL fluid, severe (chronic) asthma model; assay type: in vivo
Description: In a longer (chronic) murine model, mice were challenged 3 times a week for 4-5 weeks.
Bronchoalveolar lavage (BAL) fluid (also referred to herein as “BALf”) and bronchial submucosal inflammation are characteristic features of asthma. Mice were euthanized with an overdose of 50 mg/kg pentobarbital and ice-cold phosphate buffer saline (PBS) (0.6 ml) was instilled into the lungs. BAL fluid was obtained by three aspirations via tracheal cannulation, centrifuged, and the supernatant collected and stored at −70° C. Cell pellets were re-suspended in PBS and 100 μl aliquots placed onto slides and centrifuged (200 g, 4° C., 10 minutes) in a cytospin machine. Induction of oxidative stress was evaluated using a 2′,7′-dichlorofluorescein fluorescence assay, and total IgE, IgG2a, panel of cytokines, transforming growth factors, collagen, protein nitration and lipid peroxidation were measured using commercial kits according to the manufacturer's recommendations. […]
3-CP was administered orally (1 weight percent in chow) during the entire experiment, and dexamethasone (Dex) was administered via IP injection (1 mg/kg) one hour before each challenge. Inflammatory cell counts and pulmonary collagen content were then evaluated according to procedures described hereinabove, in order to assess effects on inflammation and remodeling, respectively.

TGF-β1 [3] = test: TGF-β1 level in bleomycin pulmonary fibrosis model; assay type: in vivo, mice; settings: 3-CP 150 mg/kg daily intranasal, 14 days, FIG. 19
Description: Bronchoalveolar lavage (BAL) fluid (also referred to herein as “BALf”) and bronchial submucosal inflammation are characteristic features of asthma. Mice were euthanized with an overdose of 50 mg/kg pentobarbital and ice-cold phosphate buffer saline (PBS) (0.6 ml) was instilled into the lungs. BAL fluid was obtained by three aspirations via tracheal cannulation, centrifuged, and the supernatant collected and stored at −70° C. Cell pellets were re-suspended in PBS and 100 μl aliquots placed onto slides and centrifuged (200 g, 4° C., 10 minutes) in a cytospin machine. Induction of oxidative stress was evaluated using a 2′,7′-dichlorofluorescein fluorescence assay, and total IgE, IgG2a, panel of cytokines, transforming growth factors, collagen, protein nitration and lipid peroxidation were measured using commercial kits according to the manufacturer's recommendations. A Sircol™ collagen assay kit was obtained from Biocolor Life Sciences Assays, a protein nitration assay kit was obtained from Abcam, and other assay kits were obtained from PeproTech Asia. […]
(§1) The effect of 3-CP on bleomycin-induced inflammation was evaluated by determining lung resistance, total inflammatory cell count, and TGF-β1 levels, according to procedures described hereinabove.

[4] = system: bleomycin-induced pulmonary fibrosis; test: Lung resistance in bleomycin pulmonary fibrosis model; assay type: in vivo, mice; settings: 3-CP 150 mg/kg daily intranasal, 14 days, 64 mg/ml methacholine, FIG. 17
Description: One day after the final challenge, respiratory activity and airway hyper-responsiveness (AHR) of experimental animals were evaluated. Whole body plethysmographs for enhanced pause (Penh) measurements are often used for assessment of AHR. However, critics have questioned the validity of Penh measurements, which supposedly measure airway obstruction of live non-sedated mice, stating that it is likely to measure the distress of the animal rather than actual obstruction. […] In brief, mice were sedated with an intraperitoneal (IP) injection of xylazine hydrochloride and anaesthetized with IP injection of pentobarbital. Subsequently, the animals were tracheostomized using an 18 gauge cannula, ventilated with a FlexiVent™ apparatus (SCIREQ), and muscle paralysis was induced with pancuronium bromide. The mice were ventilated in a quasi-sinusoidal fashion with the following settings: a tidal volume of 10 ml/kg, maximum inflation pressure of […] (30 cm H2O), a positive end expiratory pressure (PEEP) of 3 millibar and a frequency of 150 per minute. […] Airway hyper-responsiveness (AHR) was determined by aerosolizing increasing concentrations of methacholine. […]
as §1

TGF-β1 [5] = test: TGF-β1 level in OVA asthma model; assay type: in vivo, BALB/c mice
Description: All experimental procedures were carried out in accordance with the NIH Guidelines for the Care and Use of Laboratory Animals. Specific pathogen-free (SPF) male BALB/c mice (6-7 weeks of age, 18-22 grams), routinely screened serologically for relevant respiratory pathogens, were maintained in an animal housing facility for 1 week before use and given access to food and water ad libitum. Animals were randomly assigned to the indicated experimental groups, and sensitized with two intraperitoneal (IP) injections (20 μg ovalbumin (OVA) emulsified in 2 mg aluminum hydroxide (an adjuvant) in 200 μl phosphate buffer saline (PBS), pH 7.4), on days 1 and 10.
After another week, the animals were challenged by exposure to ovalbumin (OVA) aerosol (1%, w/v, in PBS) for 30 minutes each day on days 17, 18 and 19, in order to elicit an inflammatory reaction in the lungs characterized by airway hyper-responsiveness (AHR), an influx of inflammatory cells (particularly eosinophils), and increased pulmonary levels of various cytokines and transforming growth factors, protein nitration and lipid peroxidation.
(§2) Bronchoalveolar lavage (BAL) fluid (also referred to herein as “BALf”) and bronchial submucosal inflammation are characteristic features of asthma. Mice were euthanized with an overdose of 50 mg/kg pentobarbital and ice-cold phosphate buffer saline (PBS) (0.6 ml) was instilled into the lungs. BAL fluid was obtained by three aspirations via tracheal cannulation, centrifuged, and the supernatant collected and stored at −70° C. Cell pellets were re-suspended in PBS and 100 μl aliquots placed onto slides and centrifuged (200 g, 4° C., 10 minutes) in a cytospin machine. Induction of oxidative stress was evaluated using a 2′,7′-dichlorofluorescein fluorescence assay, and total IgE, IgG2a, panel of cytokines, transforming growth factors, collagen, protein nitration and lipid peroxidation were measured using commercial kits according to the manufacturer's recommendations. A Sircol™ collagen assay kit was obtained from Biocolor Life Sciences Assays, a protein nitration assay kit was obtained from Abcam, and other assay kits were obtained from PeproTech Asia.
The efficacy of oral administration of 3-CP (1 weight percent in chow) during the sensitization period and/or challenge period was then compared to IP injection (˜300 mg/kg, 0.5 hour before the OVA challenge) or intranasal instillation (˜150 mg/kg, 0.5 hour before the OVA and 6 hours later) of 3-CP, as well as to dexamethasone treatment (1 mg/kg, 3 daily IP injections, 0.5 hour prior to the challenge with OVA aerosol).
In order to assess the effect of 3-CP on inflammatory signaling pathways, […] to procedures described hereinabove, upon oral, intranasal or IP administration of 3-CP.

3-nitrotyrosine (3-NT) = test: Protein nitration (3-nitrotyrosine) in lung homogenates, OVA asthma model; assay type: in vivo, mice; settings: 3-CP via all tested modes of delivery (oral, IP, IN), FIG. 8
Description: as §2
In order to determine whether 3-CP reduces protein nitration, a form of cell damage induced by peroxynitrite (an anion generally believed to be formed in vivo by a reaction of superoxide radical and nitric oxide), lung homogenates were assayed for 3-nitrotyrosine (3-NT) levels.

CC1(C)CC(C(N)=O)C(C)(C)N1[O] (stereo not shown) [3-CP, 3-Carbamoyl-2,2,5,5-tetramethyl-pyrrolidin-1-oxyl]
maximally tolerated dose [1]: 300 to 500 mg/kg
effect on inflammatory cell counts in BAL fluid ([2]; 3-CP oral 1 weight percent in chow during entire experiment, 4 weeks OVA challenge, FIGS. 15A and 15B): reduced inflammatory cell counts, and especially eosinophil counts
reducing BAL inflammatory cell counts, 3-CP compared with dexamethasone ([2]; 3-CP oral, dexamethasone 1 mg/kg IP before each challenge): at least as effective as dexamethasone
effect on bleomycin-induced increase in TGF-β1 expression in lungs (TGF-β1 [3]): significantly reduced
effect on bleomycin-induced increase in lung resistance [4]: completely reversed
effect on OVA-induced increase in the level of TGF-β1 (TGF-β1 [5]; FIG. 7E and Table 1): inhibited
reducing TGF-β1 level, oral 3-CP compared with intranasal 3-CP and IP dexamethasone (TGF-β1 [5]; FIG. 7E and Table 1): more effective than intranasal instillation of 3-CP and IP injection of dexamethasone
TGF-β1 level (TGF-β1 [5]; OVA IP-C: 3-CP intraperitoneal during challenge): 0.88 ± 0.05 ng/mg
TGF-β1 level (TGF-β1 [5]; OVA oral-C: 3-CP oral during challenge): 0.72 ± 0.08 ng/mg
TGF-β1 level (TGF-β1 [5]; OVA oral-S&C: 3-CP oral during sensitization and challenge): 0.73 ± 0.07 ng/mg
TGF-β1 level (TGF-β1 [5]; OVA oral-S: 3-CP oral during sensitization): 0.76 ± 0.02 ng/mg
modulating TGF-β1 level, oral compared with IP 3-CP (TGF-β1 [5]; oral administration vs IP injection): consistently more effective than IP injection of 3-CP
effect on pulmonary 3-NT levels (3-nitrotyrosine (3-NT)): markedly suppressed 3-NT levels as compared to the vehicle control as well as treatment with dexamethasone

Reference: patent US10441568B2, “Nitroxide radicals for the treatment of diseases of the respiratory tract” (priority 2015, dated 2019)
